Values of other authors as cited in US20230210865A1, “MIDAZOLAM PREMIX FORMULATIONS AND USES THEREOF” (Baxter International, Inc., priority 2021, published 2023).
Structures can show the parent of a compound that is named as a salt.

Cc1ncc2n1-c1ccc(Cl)cc1C(c1ccccc1F)=NC2 [Midazolam HCl, 8-chloro-6-(2-fluorophenyl)-1-methyl-4H-imidazo[1,5-a][1,4]benzodiazepine hydrochloride]
Onset time of sedative effects (after intramuscular administration in adults): about fifteen
Potency relative to diazepam (sedative agent, administered by injection): about twice
